16 molecules from US20250388589A1, “TRICYCLIC HETEROCYCLIC DERIVATIVES, COMPOSITIONS AND USES THEREOF” (Danatlas Pharmaceuticals Co., Ltd., priority 2022, published 2025) can be followed below.

In general, IC50 refers to the concentration that inhibits the measured activity by half.

For assay [1], the target named is hPARG (C-terminal His6-tag) (Homo sapiens (Human), UniProt Q86W56). Kind of assay: PARG Enzymatic Activity Assay (HTRF). The conditions noted are these: hPARG 65 pM final, biotinylated-NAD ribosylated PARP1 8 nM final. In kind it is biochemical. The method, boiled down: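 Readout is time-resolved fluorescence at 620 and 665 nm after 60 min RT detection with streptavidin-Eu cryptate and anti-6HIS-XL665; IC50 by 4-parameter fit, 1% DMSO and no-enzyme controls. Reaction: 8 nM final ribosylated PARP1 substrate for 10 min RT, following 60 min RT enzyme (65 pM)–compound preincubation in Tris pH 7.4 buffer with EDTA, DTT, KCl.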

The next assay has as its system Kuramochi cell line. Put plainly: Cell Viability Assay (Cell Titer-Glo, 7 days). In kind it is cell-based. The conditions noted are these: Kuramochi cells, 7 days incubation, read-out: PARG Cell viability (IC50). The method, boiled down:
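IC50 from a four-parameter fit of CellTiter-Glo luminescence, scaled between DMSO-treated (high) and medium-only (low) wells. Kuramochi cells (400/well, RPMI/10% FBS) exposed 7 days at 37 °C to 9 concentrations, 3-fold steps, in duplicate.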
On the technique in general: Cellular ATP, detected with luciferase, serves as a proxy for viable cell number.

Where two headings read alike, the source gives them in different places. Where only a bound is given, the exact number is not on record here.

hPARG (C-terminal His6-tag), sequence (Q86W56 whole entry): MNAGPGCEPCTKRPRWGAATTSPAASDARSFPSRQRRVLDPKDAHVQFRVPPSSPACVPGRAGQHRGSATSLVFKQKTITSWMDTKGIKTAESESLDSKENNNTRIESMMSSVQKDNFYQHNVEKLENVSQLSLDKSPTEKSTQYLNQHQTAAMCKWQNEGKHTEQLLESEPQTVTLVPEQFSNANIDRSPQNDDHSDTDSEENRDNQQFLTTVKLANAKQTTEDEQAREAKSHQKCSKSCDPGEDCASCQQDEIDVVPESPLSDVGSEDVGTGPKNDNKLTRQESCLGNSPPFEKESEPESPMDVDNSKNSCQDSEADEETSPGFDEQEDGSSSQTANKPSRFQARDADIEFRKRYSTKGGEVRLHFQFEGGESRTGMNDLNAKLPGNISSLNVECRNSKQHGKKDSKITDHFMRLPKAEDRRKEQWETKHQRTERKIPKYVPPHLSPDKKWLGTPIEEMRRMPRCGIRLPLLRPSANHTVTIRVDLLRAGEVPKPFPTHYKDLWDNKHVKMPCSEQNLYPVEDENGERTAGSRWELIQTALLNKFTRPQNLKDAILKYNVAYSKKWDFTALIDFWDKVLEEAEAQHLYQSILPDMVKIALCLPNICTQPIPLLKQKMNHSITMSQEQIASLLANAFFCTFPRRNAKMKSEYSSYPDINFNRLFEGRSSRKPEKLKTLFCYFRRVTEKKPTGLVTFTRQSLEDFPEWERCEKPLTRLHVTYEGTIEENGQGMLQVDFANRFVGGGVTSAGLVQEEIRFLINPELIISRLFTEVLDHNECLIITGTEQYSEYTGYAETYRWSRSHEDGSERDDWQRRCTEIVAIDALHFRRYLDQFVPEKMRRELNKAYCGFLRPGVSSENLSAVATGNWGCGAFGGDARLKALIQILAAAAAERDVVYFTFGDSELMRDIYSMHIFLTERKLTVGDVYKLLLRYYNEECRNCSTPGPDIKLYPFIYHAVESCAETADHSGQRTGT

Take `CN1CCC(c2ncnc3c2c2ccc(S(=O)(=O)NC4(C#N)CC4)cc2n3-c2nnc(C(F)F)s2)CC1` [Example 146, N-(1-Cyanocyclopropyl)-9-(5-(difluoromethyl)-1,3,4-thiadiazol-2-yl)-4-(1-methylpiperidin-4-yl)-9H-pyrimido[4,5-b]indole-7-sulfonamide]: the half-maximal inhibitory concentration (IC50) (in assay [1]; in the assay with Kuramochi cell line (168 h)) was under 0.1 µM throughout.

With `CC(C)C(=O)N1CCC(c2ncnc3c2c2cc(F)c(S(=O)(=O)NC4(C)CC4)cc2n3-c2nnc(C(F)F)s2)CC1` [Example 148, 9-(5-(Difluoromethyl)-1,3,4-thiadiazol-2-yl)-6-fluoro-4-(1-isobutyrylpiperidin-4-yl)-N-(1-methylcyclopropyl)-9H-pyrimido[4,5-b]indole-7-sulfonamide], the IC50 (in assay [1]; with Kuramochi cell line (168 h)) was under 0.1 µM throughout.

Take `C[C@H]1CC(c2ncnc3c2c2cc(F)c(S(=O)(=O)NC4(C)CC4)cc2n3-c2nnc(C(F)F)s2)CCN1C(=O)N(C)C` (stereo partly drawn) [Example 149, (2S)-4-(9-(5-(difluoromethyl)-1,3,4-thiadiazol-2-yl)-6-fluoro-7-(N-(1-methylcyclopropyl)sulfamoyl)-9H-pyrimido[4,5-b]indol-4-yl)-N,N,2-trimethylpiperidine-1-carboxamide]: the concentration for half-maximal inhibition (IC50) (in assay [1]; in the assay with Kuramochi cell line) was under 0.1 µM each time.

`C[C@H]1CC(c2ncnc3c2c2ccc(S(=O)(=O)NC4(C#N)CC4)cc2n3-c2nnc(C(F)F)s2)CCN1` (stereo partly drawn) [Example 150, N-(1-Cyanocyclopropyl)-9-(5-(difluoromethyl)-1,3,4-thiadiazol-2-yl)-4-((2S)-2-methylpiperidin-4-yl)-9H-pyrimido[4,5-b]indole-7-sulfonamide]: the concentration for half-maximal inhibition (IC50) in assay [1] was under 0.1 µM; in the assay with Kuramochi cell line (168 h), 0.1 to 1 µM.

With `CC(C)C(=O)N1CCC(c2ncnc3c2c2ccc(S(=O)(=O)NC4(C#N)CC4)cc2n3-c2nnc(C(F)F)s2)C[C@@H]1C` (stereo partly drawn) [Example 151, N-(1-Cyanocyclopropyl)-9-(5-(difluoromethyl)-1,3,4-thiadiazol-2-yl)-4-((2S)-1-isobutyryl-2-methylpiperidin-4-yl)-9H-pyrimido[4,5-b]indole-7-sulfonamide], the IC50 (in assay [1]; with Kuramochi cell line (168 h)) was under 0.1 µM throughout.

For `CN(C)C(=O)N1CC=C(c2ncnc3c2c2ccc(S(=O)(=O)NC4(C)CC4)cc2n3-c2nnc(C(F)F)s2)CC1` [Example 152, 4-(9-(5-(Difluoromethyl)-1,3,4-thiadiazol-2-yl)-7-(N-(1-methylcyclopropyl)sulfamoyl)-9H-pyrimido[4,5-b]indol-4-yl)-N,N-dimethyl-3,6-dihydropyridine-1(2H)-carboxamide], the IC50 (in assay [1]; with Kuramochi cell line (168 h)) was under 0.1 µM in each case.

In the case of `CN(C)C(=O)N1CCC(c2ncnc3c2c2ccc(S(=O)(=O)NC4(C)CC4)cc2n3-c2nnc(C(F)F)s2)CC1` [Example 153, 4-(9-(5-(Difluoromethyl)-1,3,4-thiadiazol-2-yl)-7-(N-(1-methylcyclopropyl)sulfamoyl)-9H-pyrimido[4,5-b]indol-4-yl)-N,N-dimethylpiperidine-1-carboxamide], the IC50 (in assay [1]; in the assay on Kuramochi cell line (168 h)) was under 0.1 µM throughout.

As for `CC(C)C(=O)N1CCN(c2ncnc3c2c2ccc(S(=O)(=O)NC4(C#N)CC4)cc2n3-c2nnc(C(F)F)s2)C[C@@H]1CO` [Example 154, (R)—N-(1-Cyanocyclopropyl)-9-(5-(difluoromethyl)-1,3,4-thiadiazol-2-yl)-4-(3-(hydroxymethyl)-4-isobutyrylpiperazin-1-yl)-9H-pyrimido[4,5-b]indole-7-sulfonamide], the IC50 (in assay [1]; with Kuramochi cell line (168 h)) was under 0.1 µM in each case.

With `CCN1CCN(c2ncnc3c2c2ccc(S(=O)(=O)NC4(C#N)CC4)cc2n3-c2nnc(C(F)F)s2)CC1=O` [Example 155, N-(1-cyanocyclopropyl)-9-(5-(difluoromethyl)-1,3,4-thiadiazol-2-yl)-4-(4-ethyl-3-oxopiperazin-1-yl)-9H-pyrimido[4,5-b]indole-7-sulfonamide], the half-inhibitory concentration (IC50) (in assay [1]; in the assay on Kuramochi cell line (168 h)) was under 0.1 µM in each case.

With `N#CC1(NS(=O)(=O)c2ccc3c4c(N5CCn6c(nnc6C(F)(F)F)C5)ncnc4n(-c4nnc(C(F)F)s4)c3c2)CC1` [Example 156, N-(1-cyanocyclopropyl)-9-(5-(difluoromethyl)-1,3,4-thiadiazol-2-yl)-4-(3-(trifluoromethyl)-5,6-dihydro-[1,2,4]triazolo[4,3-a]pyrazin-7(8H)-yl)-9H-pyrimido[4,5-b]indole-7-sulfonamide], the IC50 (in assay [1]; with Kuramochi cell line (168 h)) was under 0.1 µM each time.

As to `CCCN1CCN(c2ncnc3c2c2ccc(S(=O)(=O)NC4(C#N)CC4)cc2n3-c2nnc(C(F)F)s2)C[C@@H]1C` [Example 157, (S)-N-(1-cyanocyclopropyl)-9-(5-(difluoromethyl)-1,3,4-thiadiazol-2-yl)-4-(3-methyl-4-propylpiperazin-1-yl)-9H-pyrimido[4,5-b]indole-7-sulfonamide], the IC50 (in assay [1]; in the assay with Kuramochi cell line (168 h)) was under 0.1 µM in each case.

Take `CC(C)CN1CCN(c2ncnc3c2c2ccc(S(=O)(=O)NC4(C#N)CC4)cc2n3-c2nnc(C(F)F)s2)CC1=O` [Example 158, N-(1-cyanocyclopropyl)-9-(5-(difluoromethyl)-1,3,4-thiadiazol-2-yl)-4-(4-isobutyl-3-oxopiperazin-1-yl)-9H-pyrimido[4,5-b]indole-7-sulfonamide]: the IC50 (in assay [1]; with Kuramochi cell line (168 h)) was under 0.1 µM in each case.

In the case of `C[C@H]1CN(c2ncnc3c2c2ccc(S(=O)(=O)NC4(C#N)CC4)cc2n3-c2nnc(C(F)F)s2)CCN1CC(F)(F)F` [Example 159, (S)-N-(1-cyanocyclopropyl)-9-(5-(difluoromethyl)-1,3,4-thiadiazol-2-yl)-4-(3-methyl-4-(2,2,2-trifluoroethyl)piperazin-1-yl)-9H-pyrimido[4,5-b]indole-7-sulfonamide], the IC50 in assay [1] is under 0.1 µM; in the assay with Kuramochi cell line (168 h), 0.1 to 1 µM.

For the molecule `N#CC1(NS(=O)(=O)c2ccc3c4c(N5CCN6CCC[C@H]6C5)ncnc4n(-c4nnc(C(F)F)s4)c3c2)CC1` [Example 160, (S)—N-(1-Cyanocyclopropyl)-9-(5-(difluoromethyl)-1,3,4-thiadiazol-2-yl)-4-(hexahydropyrrolo[1,2-a]pyrazin-2(1H)-yl)-9H-pyrimido[4,5-b]indole-7-sulfonamide], the IC50 (in assay [1]; in the assay on Kuramochi cell line (168 h)) was under 0.1 µM throughout.

On to `N#CC1(NS(=O)(=O)c2ccc3c4c(N5CCN6CCOC[C@H]6C5)ncnc4n(-c4nnc(C(F)F)s4)c3c2)CC1` [Example 161, (R)-N-(1-cyanocyclopropyl)-9-(5-(difluoromethyl)-1,3,4-thiadiazol-2-yl)-4-(hexahydropyrazino[2,1-c][1,4]oxazin-8(1H)-yl)-9H-pyrimido[4,5-b]indole-7-sulfonamide], for which the IC50 (in assay [1]; in the assay with Kuramochi cell line (168 h)) was under 0.1 µM each time.

As to `N#CC1(NS(=O)(=O)c2ccc3c4c(N5CCN6CCOC[C@@H]6C5)ncnc4n(-c4nnc(C(F)F)s4)c3c2)CC1` [Example 162, (S)-N-(1-cyanocyclopropyl)-9-(5-(difluoromethyl)-1,3,4-thiadiazol-2-yl)-4-(hexahydropyrazino[2,1-c][1,4]oxazin-8(1H)-yl)-9H-pyrimido[4,5-b]indole-7-sulfonamide], the IC50 (in assay [1]; in the assay with Kuramochi cell line (168 h)) was under 0.1 µM throughout.
